Reference: patent publication EP4603105A1, “PHARMACEUTICAL COMPOSITION CONTAINING CYCLIC COMPOUND HAVING SELECTIVE KRAS INHIBITORY EFFECT AGAINST HRAS AND NRAS” (CHUGAI SEIYAKU KABUSHIKI KAISHA, priority 2022, dated 2024)
Like-named read-outs stand apart in the source and are kept apart here. *1 amine or outer side, *2 acyl side, *3 side chain or, on linkers, in order; H or OH if unused. Where a SMILES comes first, the peptide text is derived from it. Bridges are numbered along the chain shown (N, C = ends). [ ]: non-standard residue; d: D form. The star is where a group is joined. hPhe(3-Cl-4-CF3) = N[C@@H](CCc1ccc(C(F)(F)F)c(Cl)c1)C(=O)O; NPrPhe(4-CF3) = CCCN[C@@H](Cc1ccc(C(F)(F)F)cc1)C(=O)O; NEtAsp = CCN([C@@H](CC(=O)[*:3])C(=O)[*:2])[*:1]; NMePhe(4-F) = CN[C@@H](Cc1ccc(F)cc1)C(=O)O; NMeGly(cPent) = CN[C@H](C(=O)O)C1CCCC1; NMeGly(cBu) = CN[C@H](C(=O)O)C1CCC1; Piperidide(4-Me) = CC1CCN(*)CC1; NMeD = CN[C@@H](CC(=O)O)C(=O)O; NMeL = CN[C@@H](CC(C)C)C(=O)O; Morpholide = C1CN(*)CCO1; NMeA = CN[C@@H](C)C(=O)O; Ac5c = NC1(C(=O)O)CCCC1; Aze = O=C(O)[C@@H]1CCN1; Ac4c = NC1(C(=O)O)CCC1; NEtG = CCNCC(=O)O; Sar = CNCC(=O)O

Legend:
HRAS wild-type protein = HRAS wild-type protein (Homo sapiens, UniProt P01112); assay: Binding to HRAS by surface plasmon resonance (SPR), KD and KD ratio to KRAS
Chain of HRAS wild-type protein (P01112 whole entry): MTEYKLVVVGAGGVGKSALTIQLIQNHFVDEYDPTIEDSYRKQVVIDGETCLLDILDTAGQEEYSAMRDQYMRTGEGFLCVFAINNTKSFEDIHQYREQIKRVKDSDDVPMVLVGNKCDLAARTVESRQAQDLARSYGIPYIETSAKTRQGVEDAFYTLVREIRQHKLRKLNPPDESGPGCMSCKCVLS
Method in brief: (§1)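 SPR, 30°C: Avi-biotin RAS·GDP captured via Biotin CAPture (~100–300 RU); running buffer HBS pH 7.4, 1 mM DTT, 10 mM MgCl2, 0.01% Tween 20, 10 µM GDP, 4% DMSO. Single-cycle kinetics, 100 µL/min, 75 s injections; 1:1 model → KD.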

[1] = molecular target: GDP-bound NRAS wild-type protein (Homo sapiens, UniProt P01111); assay: Binding to NRAS by surface plasmon resonance (SPR), KD and KD ratio to KRAS
Chain of GDP-bound NRAS wild-type protein (P01111 whole entry): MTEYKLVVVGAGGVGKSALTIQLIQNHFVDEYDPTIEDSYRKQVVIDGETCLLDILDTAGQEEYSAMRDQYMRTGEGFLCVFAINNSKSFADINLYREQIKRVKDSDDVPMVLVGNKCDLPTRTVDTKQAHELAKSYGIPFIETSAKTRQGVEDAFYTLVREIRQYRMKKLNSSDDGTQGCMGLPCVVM
Method in brief: as §1

[2] = test system: human lung cancer strain NCI-H441; format: cell-based
Method in brief: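 Proliferation was scored by […] measured after the reagent was added to cultures kept at 37°C in 5% carbon dioxide.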

[3] = ratio of KD for HRAS wild-type protein to KD for KRAS
[4] = ratio of KD for GDP-bound NRAS wild-type protein to KD for KRAS
[5] = ratio of KD value for HRAS wild-type protein to KD value for KRAS (SPR)
[6] = ratio of KD value for GDP-bound NRAS wild-type protein to KD value for KRAS (SPR)

| Compound | IC50 [2] [µM] | HRAS /KRAS (HRAS wild-type protein; [3]) | NRAS /KRAS [1, 4] | HRAS /KRAS (HRAS wild-type protein; ratio of the KD value with respect to HRAS wild-type protein to the KD value with respect to KRAS) | NRAS /KRAS ([1]; ratio of the KD value with respect to GDP-bound NRAS wild-type protein to the KD value with respect to KRAS) | IC50 ([2]; NCI-H441 cells, 4 days, CellTiter-Glo, read-out: NCl-H441 IC50) [µM] | HRAS /KRAS (HRAS wild-type protein; [5]) | NRAS /KRAS [1, 6] |
| --- | --- | --- | --- | --- | --- | --- | --- | --- |
| CCCN1C(=O)[C@@H]2CCN2C(=O)CN(C)C(=O)[C@H]([C@@H](C)CC)NC(=O)[C@H](CC(C)C)N(C)C(=O)C[C@@H](C(=O)N2CCOCC2)NC(=O)[C@H](C2CCCC2)N(C)C(=O)C2(CCCC2)NC(=O)[C@@H]2CCCN2C(=O)[C@H](CCc2ccc(C(F)(F)F)c(Cl)c2)NC(=O)CN(C)C(=O)[C@@H]1Cc1ccc(C(F)(F)F)cc1 [PP0349] ([NMeL]I[Sar][Aze][NPrPhe(4-CF3)][Sar][hPhe(3-Cl-4-CF3)]P[Ac5c][NMeGly(cPent)]D-Morpholide; lactam N-11) | 0.0759 | B (a compound having 3 or more and less than 10 is denoted as B) | C (A compound having a KD ratio of 0.1 or more and less than 3 is denoted as C) |  |  |  |  |  |
| CCCN1C(=O)CN(C)C(=O)CN(C)C(=O)[C@H]([C@@H](C)CC)NC(=O)[C@H](CC(C)C)N(C)C(=O)C[C@@H](C(=O)N(C)C)N(CC)C(=O)[C@H](C2CCCC2)N(C)C(=O)C2(CCC2)NC(=O)[C@@H]2CCCN2C(=O)[C@H](CCc2ccc(C(F)(F)F)c(Cl)c2)NC(=O)CN(C)C(=O)[C@@H]1Cc1ccc(C(F)(F)F)cc1 [PP1956] ([NMeL]I[Sar][Sar][NPrPhe(4-CF3)][Sar][hPhe(3-Cl-4-CF3)]P[Ac4c][NMeGly(cPent)][NEtAsp]-NMe2; lactam N-11) | 0.0022 |  |  | B (a compound having 3 or more and less than 10 is denoted as B) | B (a compound having 3 or more and less than 10 is denoted as B) |  |  |  |
| CCC[C@H]1C(=O)N[C@@H]([C@@H](C)CC)C(=O)N(C)CC(=O)N(C)[C@H]2C/C=C\CCN(C2=O)[C@@H](Cc2ccc(C(F)(F)F)cc2)C(=O)N(C)CC(=O)N[C@@H](CCc2ccc(C3CC3)c(Cl)c2)C(=O)N2C[C@H](OCC)C[C@H]2C(=O)NC2(CC(C)(C)C2)C(=O)N(C)[C@@H](C2CCCC2)C(=O)N(C)[C@H](C(=O)N(C)C)CC(=O)N1C [PP2858] |  | B (a compound having 3 or more and less than 10 is denoted as B) | A (a compound having 10 or more and less than 20 is denoted as A) |  |  | 0.0118 |  |  |
| CCCOC[C@H]1C(=O)N[C@@H]([C@@H](C)CC)C(=O)N(C)CC(=O)N(C)[C@H]2C/C=C\CCN(C2=O)[C@@H](Cc2ccc(C(F)(F)F)cc2)C(=O)N(C)CC(=O)N[C@@H](CCc2cc(F)c(C(F)(F)F)c(F)c2)C(=O)N2C[C@H](OCC)C[C@H]2C(=O)NC2(CCC2)C(=O)N(C)[C@@H](C2CCCC2)C(=O)N(C)[C@H](C(=O)N(C)CCC)CC(=O)N1C [PP1668] | 0.0053 |  |  |  |  |  | A (a compound having 10 or more and less than 20 is denoted as A) | A (a compound having 10 or more and less than 20 is denoted as A) |
| CCO[C@@H]1C[C@H]2C(=O)NC3(CC(C)(C)C3)C(=O)N(C)[C@@H](C3CCCC3)C(=O)N(C)[C@H](C(=O)N(C)C)CC(=O)N(C)[C@@H](C)C(=O)N[C@@H]([C@@H](C)CC)C(=O)N(C)CC(=O)N(C)[C@H]3C/C=C\CCN(C3=O)[C@@H](Cc3ccc(C(F)(F)F)cc3)C(=O)N(C)CC(=O)N[C@@H](CCc3ccc(C(F)(F)F)c(OC)c3)C(=O)N2C1 [PP1674] | 0.0051 |  |  |  |  |  | A (a compound having 10 or more and less than 20 is denoted as A) | A (a compound having 10 or more and less than 20 is denoted as A) |

Continued, in another order:

| IC50 [2] [µM] | Compound | HRAS /KRAS (HRAS wild-type protein; [3]) | NRAS /KRAS [1, 4] | HRAS /KRAS (HRAS wild-type protein; ratio of the KD value with respect to HRAS wild-type protein to the KD value with respect to KRAS) | NRAS /KRAS ([1]; ratio of the KD value with respect to GDP-bound NRAS wild-type protein to the KD value with respect to KRAS) | IC50 ([2]; NCI-H441 cells, 4 days, CellTiter-Glo, read-out: NCl-H441 IC50) [µM] | HRAS /KRAS (HRAS wild-type protein; [5]) | NRAS /KRAS [1, 6] |
| --- | --- | --- | --- | --- | --- | --- | --- | --- |
| 0.115 | CCCN1C(=O)CN(C)C(=O)CN(CC)C(=O)[C@H]([C@@H](C)CC)NC(=O)[C@H](CC(C)C)N(C)C(=O)C[C@@H](C(=O)N(C)C)NC(=O)[C@H](C2CCCC2)N(C)C(=O)C2(CCC2)NC(=O)[C@@H]2CCCN2C(=O)[C@H](CCc2ccc(C(F)(F)F)c(Cl)c2)NC(=O)CN(C)C(=O)[C@@H]1Cc1ccc(C(F)(F)F)cc1 [PP0368] ([NMeL]I[NEtG][Sar][NPrPhe(4-CF3)][Sar][hPhe(3-Cl-4-CF3)]P[Ac4c][NMeGly(cPent)]D-NMe2; lactam N-11) | B (a compound having 3 or more and less than 10 is denoted as B) | B (a compound having 3 or more and less than 10 is denoted as B) |  |  |  |  |  |
| 0.0114 | CCC[C@H]1C(=O)N[C@@H](C2CCCC2)C(=O)N(C)CC(=O)N(C)[C@H]2C/C=C\CCN(C2=O)[C@@H](Cc2ccc(C)cc2)C(=O)N(C)CC(=O)N[C@@H](CCc2cc(F)c(C(F)(F)F)c(F)c2)C(=O)N2CC3(CC3)C[C@H]2C(=O)NC2(CC(C)(C)C2)C(=O)N(C)[C@@H](CC(C)(C)C)C(=O)N(C)[C@H](C(=O)N(C)C)CC(=O)N1C [PP2999] | A (a compound having 10 or more and less than 20 is denoted as A) | AA (a compound having 20 or more is denoted as AA) |  |  |  |  |  |
| 0.0177 | CCCN1C(=O)CN(C)C(=O)CN(C)C(=O)[C@H]([C@@H](C)CC)NC(=O)[C@H](CC(C)C)N(C)C(=O)C[C@@H](C(=O)N2CCC(C)CC2)N(C)C(=O)[C@H](C2CCCC2)N(C)C(=O)C2(CCCC2)NC(=O)[C@@H]2CCCN2C(=O)[C@H](CCc2ccc(C(F)(F)F)c(Cl)c2)NC(=O)CN(C)C(=O)[C@@H]1Cc1ccc(C(F)(F)F)cc1 [PP0176] ([NMeL]I[Sar][Sar][NPrPhe(4-CF3)][Sar][hPhe(3-Cl-4-CF3)]P[Ac5c][NMeGly(cPent)][NMeD]-{Piperidide(4-Me)}; lactam N-11) | C (A compound having a KD ratio of 0.1 or more and less than 3 is denoted as C) | B (a compound having 3 or more and less than 10 is denoted as B) |  |  |  |  |  |
| 0.0026 | CCCN1C(=O)[C@@H]2CCN2C(=O)[C@H](C)N(C)C(=O)[C@H]([C@@H](C)CC)NC(=O)[C@H](C2CCC2)N(C)C(=O)C[C@@H](C(=O)N2CCOCC2)N(C)C(=O)[C@H](C2CCCC2)N(C)C(=O)C2(CCCC2)NC(=O)[C@@H]2CCCN2C(=O)[C@H](CCc2ccc(C(F)(F)F)c(Cl)c2)NC(=O)CN(C)C(=O)[C@@H]1Cc1ccc(C(F)(F)F)cc1 [PP0192] ([NMeGly(cBu)]I[NMeA][Aze][NPrPhe(4-CF3)][Sar][hPhe(3-Cl-4-CF3)]P[Ac5c][NMeGly(cPent)][NMeD]-Morpholide; lactam N-11) | B (a compound having 3 or more and less than 10 is denoted as B) | C (A compound having a KD ratio of 0.1 or more and less than 3 is denoted as C) |  |  |  |  |  |
| 0.0504 | CCCO[C@@H]1C[C@H]2C(=O)NC3(CCC3)C(=O)N(C)[C@@H](C3CCCC3)C(=O)N(C)[C@H](C(=O)N3CCOCC3)CC(=O)N(C)[C@@H](COC)C(=O)N[C@@H]([C@@H](C)CC)C(=O)N(C)CC(=O)N(C)[C@H]3CCCCCN(C3=O)[C@@H](Cc3ccc(C(F)(F)F)cc3)C(=O)N(C)CC(=O)N[C@@H](CCc3cc(F)c(C(F)(F)F)c(F)c3)C(=O)N2C1 [PP0838] | B (a compound having 3 or more and less than 10 is denoted as B) | B (a compound having 3 or more and less than 10 is denoted as B) |  |  |  |  |  |
| 0.0181 | CC[C@H](C)[C@@H]1NC(=O)[C@H](CC(C)C)N(C)C(=O)C[C@@H](C(=O)N2CCOCC2)N(C)C(=O)[C@H](C2CCCC2)N(C)C(=O)C2(CCCC2)NC(=O)[C@@H]2CCCN2C(=O)[C@H](CCc2ccc(C(F)(F)F)c(Cl)c2)NC(=O)CN(C)C(=O)[C@H](Cc2ccc(F)cc2)N(C)C(=O)[C@@H]2CCN2C(=O)[C@H](C)N(C)C1=O [PP0217] ([NMeL]I[NMeA][Aze][NMePhe(4-F)][Sar][hPhe(3-Cl-4-CF3)]P[Ac5c][NMeGly(cPent)][NMeD]-Morpholide; lactam N-11) | C (A compound having a KD ratio of 0.1 or more and less than 3 is denoted as C) | C (A compound having a KD ratio of 0.1 or more and less than 3 is denoted as C) |  |  |  |  |  |
